According to ChEMBL document CHEMBL1129143, “Synthesis and acetylcholinesterase inhibitory activity of fluorinated analogues of huperzine A” (Bioorg Med Chem Lett, 1996):

Molecular target: Acetylcholinesterase (Homo sapiens, UniProt P22303)
Assay: In vitro inhibitory activity against Acetylcholinesterase (AChE).

Sequence of Acetylcholinesterase (P22303 whole entry): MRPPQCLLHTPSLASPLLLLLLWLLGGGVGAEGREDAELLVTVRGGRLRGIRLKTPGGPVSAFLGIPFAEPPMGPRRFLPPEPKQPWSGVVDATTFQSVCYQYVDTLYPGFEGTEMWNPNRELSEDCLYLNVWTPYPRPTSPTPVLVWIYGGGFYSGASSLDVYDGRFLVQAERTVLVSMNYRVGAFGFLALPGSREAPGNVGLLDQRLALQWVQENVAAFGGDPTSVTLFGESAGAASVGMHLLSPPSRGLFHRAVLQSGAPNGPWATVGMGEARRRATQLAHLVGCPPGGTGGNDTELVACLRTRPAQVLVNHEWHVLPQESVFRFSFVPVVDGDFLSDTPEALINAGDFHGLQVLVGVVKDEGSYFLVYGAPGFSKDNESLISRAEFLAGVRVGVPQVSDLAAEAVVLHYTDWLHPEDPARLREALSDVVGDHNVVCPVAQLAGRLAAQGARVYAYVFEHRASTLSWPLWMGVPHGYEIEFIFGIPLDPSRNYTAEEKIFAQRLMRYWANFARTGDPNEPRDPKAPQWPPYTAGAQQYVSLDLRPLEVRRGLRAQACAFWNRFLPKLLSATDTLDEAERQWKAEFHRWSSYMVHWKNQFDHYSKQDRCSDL

SMILES	IC50 [nM]
NC12CC(C(F)(F)F)=CC(Cc3nc(O)ccc31)/C2=C\C(F)(F)F (stereo not drawn)	3000
CC1=CC2Cc3nc(O)ccc3C(N)(C1)/C2=C/C(F)(F)F (stereo not drawn)	2000
C/C=C1\C2C=C(C(F)(F)F)CC1(N)c1ccc(=O)[nH]c1C2 (stereo not drawn)	400
